Measurements published in ChEMBL document CHEMBL1201861, “Genomics of Drug Sensitity in Cancer screening data, Wellcome Trust Sanger Institute”.

Assays:
Experiment in all cases: cells
Settings in all cases: Homo sapiens
MV4-11 = assay type: functional, cell-based, MV-4-11;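 note: cell viability readout measuring growth inhibition of human MV-4-11 cells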
Description: SANGER: Inhibition of human MV-4-11 cell growth in a cell viability assay.

SK-MEL-2 = assay type: functional, cell-based;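 note: growth inhibition of human SK-MEL-2 cells measured with a cell viability assay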
Description: SANGER: Inhibition of human SK-MEL-2 cell growth in a cell viability assay.

L-363 = assay type: functional, cell-based
Description: SANGER: Inhibition of human L-363 cell growth in a cell viability assay.

KGN = assay type: functional, cell-based;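 note: growth inhibition of KGN cells, read out with a cell viability assay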
Description: SANGER: Inhibition of human KGN cell growth in a cell viability assay.

RXF 393 = assay type: functional, cell-based;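 note: growth inhibition of human RXF 393 cells, read out with a cell viability assay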
Description: SANGER: Inhibition of human RXF393 cell growth in a cell viability assay.

NCI-H1770 = assay type: functional, cell-based;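 note: growth inhibition of NCI-H1770 cells determined with a viability readout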
Description: SANGER: Inhibition of human NCI-H1770 cell growth in a cell viability assay.

ES8 = assay type: functional, cell-based;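 note: growth inhibition of human ES8 cells, read out with a cell viability assay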
Description: SANGER: Inhibition of human ES8 cell growth in a cell viability assay.

JVM-3 = assay type: functional, cell-based;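 note: growth inhibition of human JVM-3 cells, read out with a cell viability assay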
Description: SANGER: Inhibition of human JVM-3 cell growth in a cell viability assay.

SF-126 = assay type: functional, cell-based;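 note: growth inhibition of human SF126 cells, read out with a cell viability assay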
Description: SANGER: Inhibition of human SF126 cell growth in a cell viability assay.

A3-KAW = assay type: functional, cell-based;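 note: growth inhibition of human A3-KAW cells, read out with a cell viability assay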
Description: SANGER: Inhibition of human A3-KAW cell growth in a cell viability assay.

HEL = assay type: functional, cell-based;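 note: growth inhibition of HEL cells, read out with a cell viability assay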
Description: SANGER: Inhibition of human HEL cell growth in a cell viability assay.

NB13 = assay type: functional, cell-based;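 note: cell viability readout measuring growth inhibition of human NB13 cells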
Description: SANGER: Inhibition of human NB13 cell growth in a cell viability assay.

EW-24 = assay type: functional, cell-based;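 note: human EW-24 cancer cell line, growth inhibition read out via a cell viability assay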
Description: SANGER: Inhibition of human EW-24 cell growth in a cell viability assay.

NCI-H82 = assay type: functional, cell-based;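 note: growth inhibition of NCI-H82 cells, measured with a cell viability readout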
Description: SANGER: Inhibition of human NCI-H82 cell growth in a cell viability assay.

DMS-114 = assay type: functional, cell-based
SK-N-DZ = assay type: functional, cell-based;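 note: growth inhibition of the cancer cell line, read out through a viability assay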
Description: SANGER: Inhibition of human SK-N-DZ cell growth in a cell viability assay.

MHH-PREB-1 = assay type: functional, cell-based;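 note: cell viability assay measuring inhibition of proliferation of human MHH-PREB-1 cells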
Description: SANGER: Inhibition of human MHH-PREB-1 cell growth in a cell viability assay.

NCI-H446 = assay type: functional, cell-based;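 note: growth inhibition of NCI-H446 cells determined by a cell viability assay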
Description: SANGER: Inhibition of human NCI-H446 cell growth in a cell viability assay.

ES3 = assay type: functional, cell-based;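 note: growth inhibition of ES3 cells, read out with a cell viability assay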
Description: SANGER: Inhibition of human ES3 cell growth in a cell viability assay.

TE-11 = assay type: functional, cell-based;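 note: growth inhibition of human TE-11 cells, read out by a cell viability assay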
Description: SANGER: Inhibition of human TE-11 cell growth in a cell viability assay.

LU-139 = assay type: functional, cell-based
Description: SANGER: Inhibition of human LU-139 cell growth in a cell viability assay.

ES6 = assay type: functional, cell-based;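 note: growth inhibition of human ES6 cells, read out with a cell viability assay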
Description: SANGER: Inhibition of human ES6 cell growth in a cell viability assay.

ES7 = assay type: functional, cell-based;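 note: growth inhibition of cultured human ES7 cells, read out as cell viability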
Description: SANGER: Inhibition of human ES7 cell growth in a cell viability assay.

MS-1 = assay type: functional, cell-based
Description: SANGER: Inhibition of human MS-1 cell growth in a cell viability assay.

HC-1 = assay type: functional, cell-based;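 note: growth inhibition of HC-1 cells measured by a cell viability assay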
Description: SANGER: Inhibition of human HC-1 cell growth in a cell viability assay.

HCC1187 = assay type: functional, cell-based;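 note: growth inhibition of HCC1187 cells, read out with a cell viability assay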
Description: SANGER: Inhibition of human HCC1187 cell growth in a cell viability assay.

RCC10RGB = assay type: functional, cell-based;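 note: growth inhibition of human RCC10RGB cells, read out by a cell viability assay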
Description: SANGER: Inhibition of human RCC10RGB cell growth in a cell viability assay.

no-10 = assay type: functional, cell-based;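 note: growth inhibition of no-10 cells, read out with a cell viability assay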
Description: SANGER: Inhibition of human no-10 cell growth in a cell viability assay.

LAMA-84 = assay type: functional, cell-based;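 note: growth inhibition of LAMA-84 cells, read out with a cell viability assay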
Description: SANGER: Inhibition of human LAMA-84 cell growth in a cell viability assay.

NCI-H23 = assay type: functional, cell-based;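 note: cell viability assay measuring growth inhibition of NCI-H23 cells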
Description: SANGER: Inhibition of human NCI-H23 cell growth in a cell viability assay.

ES4 = assay type: functional, cell-based;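 note: growth inhibition of human ES4 cells, read out by a cell viability assay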
Description: SANGER: Inhibition of human ES4 cell growth in a cell viability assay.

PSN1 = assay type: functional, cell-based;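 note: suppression of growth of human PSN1 cells, read out by a cell viability assay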
Description: SANGER: Inhibition of human PSN1 cell growth in a cell viability assay.

MLMA = assay type: functional, cell-based;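 note: growth inhibition of MLMA cells (human), determined through a cell viability readout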
Description: SANGER: Inhibition of human MLMA cell growth in a cell viability assay.

NOS-1 = assay type: functional, cell-based;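 note: growth inhibition of the human NOS-1 cell line, read out with a cell viability assay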
Description: SANGER: Inhibition of human NOS-1 cell growth in a cell viability assay.

IA-LM = assay type: functional, cell-based;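 note: cell viability assay measuring growth inhibition of human IA-LM cells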
Description: SANGER: Inhibition of human IA-LM cell growth in a cell viability assay.

HDLM-2 = assay type: functional, cell-based;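 note: cell viability assay measuring suppression of HDLM-2 proliferation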
Description: SANGER: Inhibition of human HDLM-2 cell growth in a cell viability assay.

NB69 = assay type: functional, cell-based;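 note: growth inhibition of NB69 cells, determined by a cell viability assay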
Description: SANGER: Inhibition of human NB69 cell growth in a cell viability assay.

KP-N-YS = assay type: functional, cell-based;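 note: cell viability assay measuring inhibition of cell line growth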
Description: SANGER: Inhibition of human KP-N-YS cell growth in a cell viability assay.

SBC-1 = assay type: functional, cell-based;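 note: cell viability assay measuring growth inhibition of the SBC-1 cell line, IC50 being the concentration that halves growth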
Description: SANGER: Inhibition of human SBC-1 cell growth in a cell viability assay.

SNU1 = assay type: functional, cell-based;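 note: growth inhibition of human NCI-SNU-1 cells, measured with a cell viability assay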
Description: SANGER: Inhibition of human NCI-SNU-1 cell growth in a cell viability assay.

EM-2 = assay type: functional, cell-based;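 note: growth inhibition of EM-2 cells, read out with a cell viability assay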
Description: SANGER: Inhibition of human EM-2 cell growth in a cell viability assay.

DJM-1 = assay type: functional, cell-based;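 note: growth inhibition of human DJM-1 cells, read out by a cell viability assay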
Description: SANGER: Inhibition of human DJM-1 cell growth in a cell viability assay.

MC116 = assay type: functional, cell-based;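 note: growth inhibition of MC116 cells, read out with a cell viability assay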
Description: SANGER: Inhibition of human MC116 cell growth in a cell viability assay.

C8166 = assay type: functional, cell-based;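 note: growth inhibition of human C8166 cells measured by a cell viability assay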
Description: SANGER: Inhibition of human C8166 cell growth in a cell viability assay.

GCIY = assay type: functional, cell-based;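 note: growth inhibition of the human GCIY cell line, read out by a cell viability assay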
Description: SANGER: Inhibition of human GCIY cell growth in a cell viability assay.

IST-MEL1 = assay type: functional, cell-based;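 note: growth inhibition of the cell line, read out with a cell viability assay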
Description: SANGER: Inhibition of human IST-MEL1 cell growth in a cell viability assay.

NCI-H1299 = assay type: functional, cell-based;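 note: growth inhibition of human NCI-H1299 cells, read out by a cell viability assay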
Description: SANGER: Inhibition of human NCI-H1299 cell growth in a cell viability assay.

HCC2218 = assay type: functional, cell-based;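 note: cell viability assay read-out, with IC50 given as the concentration that inhibits growth of the cell line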
Description: SANGER: Inhibition of human HCC2218 cell growth in a cell viability assay.

NCI-H720 = assay type: functional, cell-based;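 note: growth inhibition of human NCI-H720 cells determined by a cell viability assay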
Description: SANGER: Inhibition of human NCI-H720 cell growth in a cell viability assay.

NCI-H747 = assay type: functional, cell-based;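 note: growth inhibition of human NCI-H747 cells, read out by a cell viability assay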
Description: SANGER: Inhibition of human NCI-H747 cell growth in a cell viability assay.

TK-10 = assay type: functional, cell-based;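 note: growth inhibition of TK-10 cells, read out in a cell viability assay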
Description: SANGER: Inhibition of human TK10 cell growth in a cell viability assay.

TE-12 = assay type: functional, cell-based;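 note: growth inhibition of TE-12 cells, read out by a cell viability assay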
Description: SANGER: Inhibition of human TE-12 cell growth in a cell viability assay.

Calu-6 = assay type: functional, cell-based;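 note: growth of human Calu-6 cells, read out by a cell viability assay, IC50 marking inhibition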
Description: SANGER: Inhibition of human Calu-6 cell growth in a cell viability assay.

DEL = assay type: functional, cell-based
Description: SANGER: Inhibition of human DEL cell growth in a cell viability assay.

A388 = assay type: functional, cell-based
Description: SANGER: Inhibition of human A388 cell growth in a cell viability assay.

RPMI-8866 = assay type: functional, cell-based
Description: SANGER: Inhibition of human RPMI-8866 cell growth in a cell viability assay.

HOP-62 = assay type: functional, cell-based
Description: SANGER: Inhibition of human HOP-62 cell growth in a cell viability assay.

MZ1-PC = assay type: functional, cell-based
Description: SANGER: Inhibition of human MZ1-PC cell growth in a cell viability assay.

NCI-H2126 = assay type: functional, cell-based
Description: SANGER: Inhibition of human NCI-H2126 cell growth in a cell viability assay.

Becker = assay type: functional, cell-based
Description: SANGER: Inhibition of human Becker cell growth in a cell viability assay.

MZ7-mel = assay type: functional, cell-based
Description: SANGER: Inhibition of human MZ7-mel cell growth in a cell viability assay.

BB65-RCC = assay type: functional, cell-based
Description: SANGER: Inhibition of human BB65-RCC cell growth in a cell viability assay.

GT3TKB = assay type: functional, cell-based
Description: SANGER: Inhibition of human GT3TKB cell growth in a cell viability assay.

A704 = assay type: functional, cell-based
Description: SANGER: Inhibition of human A704 cell growth in a cell viability assay.

D-502MG = assay type: functional, cell-based
Description: SANGER: Inhibition of human D-502MG cell growth in a cell viability assay.

NB5 = assay type: functional, cell-based
Description: SANGER: Inhibition of human NB5 cell growth in a cell viability assay.

C[C@]12O[C@H](C[C@]1(O)CO)n1c3ccccc3c3c4c(c5c6ccccc6n2c5c31)CNC4=O [LESTAURTINIB]
IC50 (MV4-11): < 0.00781 µM | IC50 (SK-MEL-2): 0.0266 µM | IC50 (L-363): 0.147 µM | IC50 (KGN): 0.138 µM | IC50 (RXF 393): 0.917 µM | IC50 (NCI-H1770): > 2 µM | IC50 (ES8): 0.132 µM | IC50 (JVM-3): 0.0292 µM | IC50 (SF-126): 0.273 µM | IC50 (A3-KAW): 0.0239 µM | IC50 (HEL): 0.204 µM | IC50 (NB13): 0.469 µM | IC50 (EW-24): 0.266 µM | IC50 (NCI-H82): > 2 µM | IC50 (DMS-114): 1.52 µM | IC50 (SK-N-DZ): 0.258 µM | IC50 (MHH-PREB-1): 0.0272 µM | IC50 (NCI-H446): 1.91 µM | IC50 (ES3): 0.125 µM | IC50 (TE-11): 0.609 µM | IC50 (LU-139): > 2 µM | IC50 (ES6): > 2 µM | IC50 (ES7): 0.0948 µM | IC50 (MS-1): > 2 µM | IC50 (HC-1): 0.922 µM | IC50 (HCC1187): > 2 µM | IC50 (RCC10RGB): > 2 µM | IC50 (no-10): > 2 µM | IC50 (LAMA-84): 0.0485 µM | IC50 (NCI-H23): 1.69 µM | IC50 (ES4): 0.128 µM | IC50 (PSN1): 0.231 µM | IC50 (MLMA): 0.146 µM | IC50 (NOS-1): 0.949 µM | IC50 (IA-LM): > 2 µM | IC50 (HDLM-2): > 2 µM | IC50 (NB69): 0.415 µM | IC50 (KP-N-YS): 0.713 µM | IC50 (SBC-1): 0.0606 µM | IC50 (SNU1): 0.183 µM | IC50 (EM-2): 0.45 µM | IC50 (DJM-1): 0.659 µM | IC50 (MC116): 0.19 µM | IC50 (C8166): > 2 µM | IC50 (GCIY): > 2 µM | IC50 (IST-MEL1): 0.196 µM | IC50 (NCI-H1299): 0.925 µM | IC50 (HCC2218): > 2 µM | IC50 (NCI-H720): 0.0485 µM | IC50 (NCI-H747): 1.05 µM | IC50 (TK-10): 0.251 µM | IC50 (TE-12): > 2 µM | IC50 (Calu-6): > 2 µM | IC50 (DEL): 0.0473 µM | IC50 (A388): > 2 µM | IC50 (RPMI-8866): 0.123 µM | IC50 (HOP-62): > 2 µM | IC50 (MZ1-PC): > 2 µM | IC50 (NCI-H2126): > 2 µM | IC50 (Becker): 0.724 µM | IC50 (MZ7-mel): 0.603 µM | IC50 (BB65-RCC): 0.023 µM | IC50 (GT3TKB): 0.389 µM | IC50 (A704): 0.967 µM | IC50 (D-502MG): 0.411 µM | IC50 (NB5): 0.471 µM

CCNC(=O)c1noc(-c2cc(C(C)C)c(O)cc2O)c1-c1ccc(CN2CCOCC2)cc1 [LUMINESPIB]
IC50 (MV4-11): 0.000558 µM | IC50 (SK-MEL-2): 0.125 µM | IC50 (L-363): 0.069 µM | IC50 (KGN): 0.00703 µM | IC50 (RXF 393): 0.0086 µM | IC50 (NCI-H1770): 0.0588 µM | IC50 (ES8): 0.0354 µM | IC50 (JVM-3): > 0.256 µM | IC50 (SF-126): 0.0501 µM | IC50 (A3-KAW): 0.227 µM | IC50 (HEL): 0.0389 µM | IC50 (NB13): 0.0423 µM | IC50 (EW-24): > 0.256 µM | IC50 (NCI-H82): > 0.256 µM | IC50 (DMS-114): > 0.256 µM | IC50 (SK-N-DZ): 0.179 µM | IC50 (MHH-PREB-1): 0.0931 µM | IC50 (NCI-H446): > 0.256 µM | IC50 (ES3): 0.0876 µM | IC50 (TE-11): 0.2 µM | IC50 (LU-139): > 0.256 µM | IC50 (ES6): 0.0126 µM | IC50 (ES7): 0.0337 µM | IC50 (MS-1): 0.186 µM | IC50 (HC-1): 0.0407 µM | IC50 (HCC1187): > 0.256 µM | IC50 (RCC10RGB): > 0.256 µM | IC50 (no-10): 0.0302 µM | IC50 (LAMA-84): 0.0417 µM | IC50 (NCI-H23): 0.241 µM | IC50 (ES4): 0.015 µM | IC50 (PSN1): 0.00318 µM | IC50 (MLMA): 0.0461 µM | IC50 (NOS-1): 0.0159 µM | IC50 (IA-LM): 0.0109 µM | IC50 (HDLM-2): 0.0411 µM | IC50 (NB69): 0.011 µM | IC50 (KP-N-YS): 0.0835 µM | IC50 (SBC-1): > 0.256 µM | IC50 (SNU1): 0.0789 µM | IC50 (EM-2): > 0.256 µM | IC50 (DJM-1): 0.0427 µM | IC50 (MC116): > 0.256 µM | IC50 (C8166): 0.0113 µM | IC50 (GCIY): 0.0206 µM | IC50 (IST-MEL1): 0.00852 µM | IC50 (NCI-H1299): 0.0115 µM | IC50 (HCC2218): 0.1 µM | IC50 (NCI-H720): > 0.256 µM | IC50 (NCI-H747): 0.0457 µM | IC50 (TK-10): 0.0138 µM | IC50 (TE-12): 0.0178 µM | IC50 (Calu-6): 0.0796 µM | IC50 (DEL): 0.112 µM | IC50 (A388): 0.0212 µM | IC50 (RPMI-8866): > 0.256 µM | IC50 (HOP-62): 0.0154 µM | IC50 (MZ1-PC): 0.0264 µM | IC50 (NCI-H2126): > 0.256 µM | IC50 (Becker): 0.0151 µM | IC50 (MZ7-mel): 0.0433 µM | IC50 (BB65-RCC): 0.012 µM | IC50 (GT3TKB): 0.012 µM | IC50 (A704): > 0.256 µM | IC50 (D-502MG): > 0.256 µM | IC50 (NB5): 0.0361 µM
